According to publication PMC5400565, “Real-time near-infrared fluorescence imaging using cRGD-ZW800-1 for intraoperative visualization of multiple cancer types” (Oncotarget, 2017):

How the values were obtained:
MAO-A = target: T1, MAO-A (Rattus norvegicus, UniProt P21396); experiment: Off-target screening (Eurofins Cerep), MAO-A; assay type: binding
T1 construct: Eurofins Cerep SA (contract screen)

Cannabinoid CB1 = target: T2, Cannabinoid CB1 (Homo sapiens, UniProt P21554); experiment: Off-target screening (Eurofins Cerep), CB1; assay type: binding
T2 construct: Eurofins Cerep SA (contract screening)
T2 sequence (P21554 whole entry): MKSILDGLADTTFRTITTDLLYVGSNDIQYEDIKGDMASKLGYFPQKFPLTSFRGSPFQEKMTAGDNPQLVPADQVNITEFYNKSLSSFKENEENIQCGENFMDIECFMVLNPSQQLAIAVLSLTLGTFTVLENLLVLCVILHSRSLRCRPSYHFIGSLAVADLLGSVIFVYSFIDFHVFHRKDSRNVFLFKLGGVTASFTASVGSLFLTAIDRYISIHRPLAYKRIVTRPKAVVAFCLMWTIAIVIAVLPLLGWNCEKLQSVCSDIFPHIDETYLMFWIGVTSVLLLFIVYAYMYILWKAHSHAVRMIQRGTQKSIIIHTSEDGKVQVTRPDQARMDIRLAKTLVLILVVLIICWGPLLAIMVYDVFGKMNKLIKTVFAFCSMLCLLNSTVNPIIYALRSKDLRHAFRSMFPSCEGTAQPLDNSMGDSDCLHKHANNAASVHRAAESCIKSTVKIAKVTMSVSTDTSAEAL

[1] = target: T3, Cholecystokinin CCK1 (CCKA) (Homo sapiens, UniProt P32238); experiment: Off-target screening (Eurofins Cerep), CCK1 (CCKA); assay type: binding
T3 construct: Eurofins Cerep SA (contract screening)
T3 sequence (P32238 whole entry): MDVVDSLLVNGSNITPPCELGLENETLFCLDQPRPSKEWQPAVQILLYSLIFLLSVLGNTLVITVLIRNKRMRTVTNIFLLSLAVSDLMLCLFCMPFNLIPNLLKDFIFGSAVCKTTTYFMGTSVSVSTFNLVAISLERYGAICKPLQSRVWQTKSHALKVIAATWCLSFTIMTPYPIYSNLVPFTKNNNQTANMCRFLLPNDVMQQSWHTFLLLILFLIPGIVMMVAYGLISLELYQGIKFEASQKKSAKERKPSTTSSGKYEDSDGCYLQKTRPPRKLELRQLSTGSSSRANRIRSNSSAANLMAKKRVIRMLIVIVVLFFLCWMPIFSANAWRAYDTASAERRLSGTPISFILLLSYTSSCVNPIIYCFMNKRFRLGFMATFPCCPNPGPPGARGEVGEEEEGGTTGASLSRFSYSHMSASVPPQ

Dopamine D1 = target: T4, Dopamine D1 (Homo sapiens, UniProt P21728); experiment: Off-target screening (Eurofins Cerep), D1; assay type: binding
T4 construct: Eurofins Cerep SA (contract screening)
T4 sequence (P21728 whole entry): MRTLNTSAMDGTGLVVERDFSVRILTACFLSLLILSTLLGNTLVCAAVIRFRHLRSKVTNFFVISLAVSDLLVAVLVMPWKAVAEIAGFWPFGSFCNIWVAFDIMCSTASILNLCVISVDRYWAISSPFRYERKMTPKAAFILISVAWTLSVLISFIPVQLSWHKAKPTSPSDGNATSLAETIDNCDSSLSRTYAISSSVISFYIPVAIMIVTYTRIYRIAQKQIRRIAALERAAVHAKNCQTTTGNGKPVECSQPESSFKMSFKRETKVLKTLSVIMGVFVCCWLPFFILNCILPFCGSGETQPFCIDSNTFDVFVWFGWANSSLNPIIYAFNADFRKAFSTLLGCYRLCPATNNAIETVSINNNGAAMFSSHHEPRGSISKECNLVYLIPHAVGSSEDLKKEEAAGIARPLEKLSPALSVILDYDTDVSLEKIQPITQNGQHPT

Adrenergic α1A = target: T5, Adrenergic α1A (Homo sapiens, UniProt P35348); experiment: Off-target screening (Eurofins Cerep), α1A; assay type: binding
T5 construct: Eurofins Cerep SA (contract screening)
T5 sequence (P35348 1-466): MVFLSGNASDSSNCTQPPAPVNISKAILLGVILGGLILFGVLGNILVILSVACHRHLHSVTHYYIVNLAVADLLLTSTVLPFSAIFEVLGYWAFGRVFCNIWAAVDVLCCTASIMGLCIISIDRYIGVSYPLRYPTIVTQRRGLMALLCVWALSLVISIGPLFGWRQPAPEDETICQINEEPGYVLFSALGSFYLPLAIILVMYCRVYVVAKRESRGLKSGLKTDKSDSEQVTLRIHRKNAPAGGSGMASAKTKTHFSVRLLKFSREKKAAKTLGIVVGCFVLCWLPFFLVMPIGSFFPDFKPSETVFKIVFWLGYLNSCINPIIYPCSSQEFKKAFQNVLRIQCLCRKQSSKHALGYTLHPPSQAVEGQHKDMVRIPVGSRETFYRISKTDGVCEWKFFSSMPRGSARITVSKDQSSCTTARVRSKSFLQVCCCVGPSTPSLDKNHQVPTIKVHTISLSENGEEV
Description: (§1) Off-target interactions are binding of tracers to other components on the cell surface than the actual target site. These non-specific interactions are often of low affinity and easily missed, but can have significant effects. We outsourced the screening for in vitro for off-target interactions of cRGD-ZW800-1 to Eurofins Cerep SA, Le bois l’Evêque, France. They assessed the percentage of inhibition of a reference compound in 44 selected targets, including G protein-coupled receptors (GPCRs), transporters, ion channels, nuclear receptors, kinases and other non-kinase enzymes. These targets were recommended by four major pharmaceutical companies. The complete list is included in Supplementary Table 1 of the Supplementary Data. Each assay was performed twice using 10 μM cRGD-ZW800-1 and a reference compound. Inhibition higher than 50% was considered to represent a significant effect of cRGD-ZW800-1. Results showing between 20% and 50% were considered weak to moderate effects, while lower than 20% was not considered significant and mostly attributable to variability of the signal around the control level.

Serotonin 5-HT2A = target: T6, Serotonin 5-HT2A (Homo sapiens, UniProt P28223); experiment: Off-target screening (Eurofins Cerep), 5-HT2A; assay type: binding
T6 construct: Eurofins Cerep SA (contract screening)
T6 sequence (P28223 whole entry): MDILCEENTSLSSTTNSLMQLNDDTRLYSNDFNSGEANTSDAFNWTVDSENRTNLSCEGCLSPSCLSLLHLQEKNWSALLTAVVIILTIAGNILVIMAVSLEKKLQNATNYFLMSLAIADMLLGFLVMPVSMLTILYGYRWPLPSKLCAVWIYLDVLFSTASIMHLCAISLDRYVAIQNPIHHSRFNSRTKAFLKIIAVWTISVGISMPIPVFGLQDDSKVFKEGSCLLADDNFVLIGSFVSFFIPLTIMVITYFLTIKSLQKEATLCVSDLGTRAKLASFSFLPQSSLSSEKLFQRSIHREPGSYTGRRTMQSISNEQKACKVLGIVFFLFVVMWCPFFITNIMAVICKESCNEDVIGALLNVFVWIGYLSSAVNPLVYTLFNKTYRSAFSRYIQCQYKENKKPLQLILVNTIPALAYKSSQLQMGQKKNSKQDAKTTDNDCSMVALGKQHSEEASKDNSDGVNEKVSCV

COX1 = target: T7, COX1 (Homo sapiens, UniProt P23219); experiment: Off-target screening (Eurofins Cerep), COX1; assay type: biochemical
T7 construct: Eurofins Cerep SA (contract screen)
T7 sequence (P23219 24-599): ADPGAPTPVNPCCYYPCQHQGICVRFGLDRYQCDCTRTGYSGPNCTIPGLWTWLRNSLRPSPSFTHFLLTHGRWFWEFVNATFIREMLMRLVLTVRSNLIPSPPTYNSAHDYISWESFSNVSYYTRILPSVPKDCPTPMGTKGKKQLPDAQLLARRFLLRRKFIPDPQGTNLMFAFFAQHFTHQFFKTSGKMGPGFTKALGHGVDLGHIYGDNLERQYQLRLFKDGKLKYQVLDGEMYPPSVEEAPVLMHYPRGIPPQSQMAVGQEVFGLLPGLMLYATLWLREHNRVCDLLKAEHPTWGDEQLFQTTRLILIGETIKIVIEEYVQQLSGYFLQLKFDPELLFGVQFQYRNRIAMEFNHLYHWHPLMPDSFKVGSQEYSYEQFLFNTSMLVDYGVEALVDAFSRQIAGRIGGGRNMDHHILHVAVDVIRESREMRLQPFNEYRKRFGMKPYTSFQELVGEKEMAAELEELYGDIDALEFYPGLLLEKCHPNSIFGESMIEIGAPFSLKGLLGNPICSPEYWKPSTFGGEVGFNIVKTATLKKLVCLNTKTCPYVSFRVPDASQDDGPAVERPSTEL

BxPC-3 tumors and organs = experiment: Ex vivo biodistribution, BxPC-3 model; assay type: in vivo, mice; conditions: 4 h post injection
Procedure: After imaging, mice were sacrificed and OSC-19 and BxPC-3 tumors were quickly frozen in isopentane at -80°C for histological evaluation. Tissues were sectioned at 10 μm and fluorescence imaging was performed using fluorescence microscopy (Nikon eclipse e800, Nikon, Amsterdam, The Netherlands). All histologic sections were stained with standard hematoxylin-eosin stain (HE). Organs of mice with colorectal and pancreatic cancer were collected and imaged using the Pearl® to evaluate biodistribution.
Mice were administered with 0.25 (HT-29 model only), 1.0, 10, or 30 nmol cRGD-ZW800-1 to evaluate tumor signals, biodistribution, and to calculate TBRs (n = 3 per dose group). At 4 h (BxPC-3 model) and 24 h (HT-29 model) after injection, mice were fully dissected and fluorescence intensity of their organs was measured.
Mice bearing orthotopic OSC-19 tumors (n = 2) were administrated with 10 nmol cRGD-ZW800-1 and imaged at 4 h. Mice bearing orthotopic MCF-7 tumors (n = 2) were injected with 10 nmol cRGD-ZW800-1 and imaged at 0.5, 1, 2, 4, 6, 8, 24, and 48 h post injection. One mouse with 2 MCF-7 tumors was administered with 10 nmol cRGD-ZW800-1 and imaged at 4 h post injection while its skin was partially removed. In vivo TBRs were calculated by dividing the mean fluorescence signals of tumors by the mean of surrounding tissue. Ex vivo organ-to-tumor ratios were calculated by dividing the fluorescence intensity of the organ by that of the tumor.

Vasopressin V1a = target: T8, Vasopressin V1a (Homo sapiens, UniProt P37288); experiment: Off-target screening (Eurofins Cerep), V1a; assay type: binding
T8 construct: Eurofins Cerep SA (contract screening)
T8 sequence (P37288 whole entry): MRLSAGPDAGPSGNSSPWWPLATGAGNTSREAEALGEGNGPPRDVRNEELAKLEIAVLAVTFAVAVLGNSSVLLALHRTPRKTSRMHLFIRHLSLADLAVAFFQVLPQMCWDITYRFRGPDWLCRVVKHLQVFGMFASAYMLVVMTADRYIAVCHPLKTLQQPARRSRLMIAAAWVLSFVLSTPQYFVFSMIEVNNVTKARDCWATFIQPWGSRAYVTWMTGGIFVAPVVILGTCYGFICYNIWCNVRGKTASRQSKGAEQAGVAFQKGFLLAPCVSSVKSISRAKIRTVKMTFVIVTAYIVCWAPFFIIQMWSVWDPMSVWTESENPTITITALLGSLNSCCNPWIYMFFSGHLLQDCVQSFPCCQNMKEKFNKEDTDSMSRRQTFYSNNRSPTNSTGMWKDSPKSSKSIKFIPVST

Dopamine transporter = target: T9, Dopamine transporter (Homo sapiens, UniProt Q01959); experiment: Off-target screening (Eurofins Cerep), dopamine transporter; assay type: binding
T9 construct: Eurofins Cerep SA (contract screening)
T9 sequence (Q01959 whole entry): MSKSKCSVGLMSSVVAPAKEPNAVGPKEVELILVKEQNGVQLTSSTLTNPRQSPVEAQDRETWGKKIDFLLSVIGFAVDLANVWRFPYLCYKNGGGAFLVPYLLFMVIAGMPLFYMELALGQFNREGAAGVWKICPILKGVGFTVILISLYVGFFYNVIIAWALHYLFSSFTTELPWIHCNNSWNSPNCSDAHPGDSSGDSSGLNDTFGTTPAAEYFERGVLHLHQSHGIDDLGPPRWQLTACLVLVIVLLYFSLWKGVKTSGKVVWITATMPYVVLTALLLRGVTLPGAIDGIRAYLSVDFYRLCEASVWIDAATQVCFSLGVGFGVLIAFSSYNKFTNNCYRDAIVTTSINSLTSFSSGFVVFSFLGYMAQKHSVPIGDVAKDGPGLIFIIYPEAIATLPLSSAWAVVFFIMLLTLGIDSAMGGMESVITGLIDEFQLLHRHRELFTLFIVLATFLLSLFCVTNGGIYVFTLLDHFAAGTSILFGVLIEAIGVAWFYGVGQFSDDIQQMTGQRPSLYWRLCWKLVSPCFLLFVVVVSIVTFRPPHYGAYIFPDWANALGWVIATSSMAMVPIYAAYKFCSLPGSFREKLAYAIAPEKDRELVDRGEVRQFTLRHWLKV

[2] = Toxicology study in rats (unpublished data)
[3] = test system: GABA channels BZD (central); experiment: Off-target screening (Eurofins Cerep), BZD (central); assay type: binding
Description: as §1

KV channel = experiment: Off-target screening (Eurofins Cerep), KV channel; assay type: binding
Description: as §1

Serotonin 5-HT1A = target: T10, Serotonin 5-HT1A (Homo sapiens, UniProt P08908); experiment: Off-target screening (Eurofins Cerep), 5-HT1A; assay type: binding
T10 construct: Eurofins Cerep SA (contract screening)
T10 sequence (P08908 whole entry): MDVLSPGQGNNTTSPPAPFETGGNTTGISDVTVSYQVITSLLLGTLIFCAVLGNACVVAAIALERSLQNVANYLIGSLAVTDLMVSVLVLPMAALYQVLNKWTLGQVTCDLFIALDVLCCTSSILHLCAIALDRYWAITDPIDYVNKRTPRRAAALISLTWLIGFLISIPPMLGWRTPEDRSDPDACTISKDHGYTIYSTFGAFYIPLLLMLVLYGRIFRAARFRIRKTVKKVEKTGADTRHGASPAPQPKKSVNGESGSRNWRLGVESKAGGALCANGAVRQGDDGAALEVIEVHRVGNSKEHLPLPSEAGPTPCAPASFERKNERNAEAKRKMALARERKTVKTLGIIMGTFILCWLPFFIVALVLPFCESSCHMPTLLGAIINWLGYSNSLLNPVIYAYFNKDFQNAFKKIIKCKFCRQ

Serotonin channels 5-HT3 = target: T11, Serotonin channels 5-HT3 (Homo sapiens, UniProt P46098); experiment: Off-target screening (Eurofins Cerep), 5-HT3; assay type: binding
T11 construct: Eurofins Cerep SA (contract screen)
T11 sequence (P46098 24-478): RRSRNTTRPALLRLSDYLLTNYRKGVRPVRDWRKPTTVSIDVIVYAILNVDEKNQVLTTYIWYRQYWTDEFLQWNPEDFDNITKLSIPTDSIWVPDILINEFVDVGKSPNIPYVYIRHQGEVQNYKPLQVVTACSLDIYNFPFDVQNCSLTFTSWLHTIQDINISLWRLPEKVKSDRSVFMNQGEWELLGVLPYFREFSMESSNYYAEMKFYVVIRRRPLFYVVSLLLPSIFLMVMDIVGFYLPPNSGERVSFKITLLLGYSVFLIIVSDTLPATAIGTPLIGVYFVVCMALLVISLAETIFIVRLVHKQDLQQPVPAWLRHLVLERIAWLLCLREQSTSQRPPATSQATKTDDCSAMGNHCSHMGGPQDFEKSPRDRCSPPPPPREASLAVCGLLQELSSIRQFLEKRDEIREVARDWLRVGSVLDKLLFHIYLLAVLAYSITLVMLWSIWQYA

[4] = 10 μM, mean of 2, read-out: % of Control Specific Binding Mean
[5] = 10 μM cRGD-ZW800-1, format H, Ag, performed twice, read-out: % Inhibition of Control Specific Binding
[6] = read-out: % Inhibition of Control Specific Binding
[7] = read-out: % of Control Specific Binding Mean
[8] = 10 μM cRGD-ZW800-1, format H, An, performed twice, read-out: % Inhibition of Control Specific Binding

T1 sequence (P21396 whole entry): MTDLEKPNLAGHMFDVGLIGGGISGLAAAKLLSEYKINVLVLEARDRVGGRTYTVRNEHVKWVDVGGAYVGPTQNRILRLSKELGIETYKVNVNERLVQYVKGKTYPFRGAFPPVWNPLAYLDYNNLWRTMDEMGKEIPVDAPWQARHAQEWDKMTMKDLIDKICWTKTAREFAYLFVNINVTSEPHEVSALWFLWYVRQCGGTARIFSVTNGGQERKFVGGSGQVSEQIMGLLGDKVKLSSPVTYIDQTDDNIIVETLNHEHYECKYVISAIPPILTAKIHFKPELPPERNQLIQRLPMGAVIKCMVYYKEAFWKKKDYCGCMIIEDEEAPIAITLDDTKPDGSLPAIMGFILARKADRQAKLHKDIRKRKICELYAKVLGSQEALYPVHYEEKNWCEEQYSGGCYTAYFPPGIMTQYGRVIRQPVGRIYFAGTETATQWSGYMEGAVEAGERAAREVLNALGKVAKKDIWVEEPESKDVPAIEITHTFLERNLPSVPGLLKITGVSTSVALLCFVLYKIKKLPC

CC1(C)C(/C=C/C2=C(Oc3ccc(CCC(=O)NCCCC[C@@H]4NC(=O)[C@@H](Cc5ccc(O)cc5)NC(=O)[C@H](CC(=O)O)NC(=O)CNC(=O)[C@H](CCCNC(=N)N)NC4=O)cc3)C(=C/C=C3/N(CCC[N+](C)(C)C)c4ccc(S(=O)(=O)O)cc4C3(C)C)/CCC2)=[N+](CCC[N+](C)(C)C)c2ccc(S(=O)(=O)O)cc21 [cRGD-ZW800-1]
inhibition at 10 µM (MAO-A; 10 μM cRGD-ZW800-1, format An, performed twice, read-out: % Inhibition of Control Specific Binding): 15%
remaining activity at 10 µM (MAO-A; [4]): 85%
inhibition at 10 µM (Cannabinoid CB1; [5]): -6%
remaining activity at 10 µM (Cannabinoid CB1; [4]): 106%
inhibition at 10 µM [1, 5]: -8%
remaining activity at 10 µM [1, 4]: 108%
inhibition at 10 µM (Dopamine D1; [6]): -1%
remaining activity at 10 µM (Dopamine D1; [7]): 101%
inhibition at 10 µM (Adrenergic α1A; [8]): 9%
remaining activity at 10 µM (Adrenergic α1A; [4]): 90.6%
inhibition at 10 µM (Serotonin 5-HT2A; [5]): -9%
remaining activity at 10 µM (Serotonin 5-HT2A; [4]): 109%
inhibition at 10 µM (COX1; 10 μM cRGD-ZW800-1, format H, performed twice, read-out: % Inhibition of Control Specific Binding): -8%
remaining activity at 10 µM (COX1; [4]): 108%
tumor fluorescence relative to skin, intestines, lungs, muscle, gallbladder, brain, and blood (BxPC-3 tumors and organs; all doses, ex vivo, Pearl): at least twice as fluorescent
fluorescence signals in kidneys relative to tumors (BxPC-3 tumors and organs; ex vivo): equal to or higher than tumors
fluorescence ratios of large intestines and liver compared with tumors (BxPC-3 tumors and organs; ex vivo organ-to-tumor ratio): around half
inhibition at 10 µM (Vasopressin V1a; [5]): 4%
remaining activity at 10 µM (Vasopressin V1a; [4]): 96%
inhibition at 10 µM (Dopamine transporter; [8]): 5%
remaining activity at 10 µM (Dopamine transporter; [4]): 95%
safe starting dose for first in-human studies ([2]; 10% of the HED of the NOAEL (FDA recommendation)): 0.08 mg/kg
human equivalent dose (HED) of the NOAEL ([2]; NOAEL of 5.0 mg/kg in rats adjusted for body surface area): 0.80 mg/kg
toxicology findings ([2]; rats, intravenous injection of 5.0 mg/kg, unpublished data): neither clinical symptoms, nor treatment-related histopathological, biochemical, and hematological abnormalities
no observable adverse event level (NOAEL) ([2]; rats, intravenous injection, unpublished data): at least 5.0 mg/kg
% Inhibition of Control Specific Binding ([3]; 10 μM cRGD-ZW800-1, format Ag, performed twice): 2%
% of Control Specific Binding Mean ([3]; 10 μM, mean of 2): 97.6%
% Inhibition of Control Specific Binding (KV channel; 10 μM cRGD-ZW800-1, format An, performed twice): 2%
% of Control Specific Binding Mean (KV channel; 10 μM, mean of 2): 98.0%
inhibition at 10 µM (Serotonin 5-HT1A; [5]): 9%
remaining activity at 10 µM (Serotonin 5-HT1A; [4]): 90.9%
inhibition at 10 µM (Serotonin channels 5-HT3; [6]): 12%
remaining activity at 10 µM (Serotonin channels 5-HT3; [7]): 87.7%
